Data from patent US10570179B2, “Substituted urea depsipeptide analogs as activators of the CLPP endopeptidase” (priority 2016, dated 2020).
Values after ≈ are worked out from the molar mass of the structure shown. Where two headings read alike, the source gives them in different places. Numbered stars: 1 amine (or outer) side, 2 acyl side, 3 side chain; on linkers, the order of the positions; unused ones are H or OH. Bridge positions count the residues as written; N and C are the ends. Square brackets hold non-standard residues; d marks the D form. Peptide text beside a SMILES is read from it. * marks the point of attachment. Phe(3-CF3) = N[C@@H](Cc1cccc(C(F)(F)F)c1)C(=O)O; Piperazine(2S-CO,4-Me) = CN1CCN[C@H](C(=O)O)C1; Phe(3,5-Me2) = Cc1cc(C)cc(C[C@H](N)C(=O)O)c1; X6 = O=C([C@@H]1CS(=O)(=O)CCN1[*:1])[*:2]; Phe(3-OMe) = COc1cccc(C[C@H](N)C(=O)O)c1; Phe(3-Me) = Cc1cccc(C[C@H](N)C(=O)O)c1; NH(4-Cl-2-F-phenyl) = Fc1cc(Cl)ccc1N*; Pro(4R-Me) = C[C@H]1CN[C@H](C(=O)O)C1; NH(4-Me-phenyl) = Cc1ccc(N*)cc1; aThr = C[C@H](O)[C@H](N)C(=O)O; Pip = O=C(O)[C@@H]1CCCCN1; CO = O=C([*:1])[*:2]

Legend:
[1] = Microsomal metabolic stability; type: in vitro ADME, mouse
Protocol: Compounds were initially prepared by dissolving them into DMSO at a final concentration of 10 mM. NADPH regenerating solutions A and B and mouse liver microsomes (CD-1) were obtained from BD Gentest (Woburn, Mass.). Ninety-six well deep well plates were obtained from MidWest Scientific Inc (Valley Park, Mo.).
Sample preparation for microsomal stability was modified from methods of Di, L., et al., Int J Pharm. 2005 Jun. 13; 297(1-2):110-9. A set of incubation times of 0, 15, 30, 60, 120, and 240 minutes were used. Mouse liver microsomal solutions were prepared by adding 58 μL of concentrated human or mouse liver microsomes (20 mg/mL protein concentration) to 1.756 mL of 0.1 M potassium phosphate buffer (pH 7.4) and 5 μL of 0.5 M EDTA to make a 0.6381 mg/mL (protein) microsomal solution. NADPH regenerating agent contained 113 μL of NADPH A, 23 μL of NADPH B, and 315 μL of 0.1 M potassium phosphate buffer (pH 7.4). The diluted test compound solutions (2 μL) were each added directly to a 1.79 mL of liver microsomal solution. This solution was mixed and 90 μL was transferred to 6 time points plates (each in triplicate wells). For the time 0 plate, 225 μL of cold acetonitrile with internal standard ([…] warfarin) was added to each well, followed by addition of NADPH regenerating agent (22.5 μL) and no incubation. For other five time points' plate, NADPH regenerating agent (22.5 μL) was added to each well to initiate the reaction. The plates were incubated at 37° C. for the required time, followed by quenching of the reaction by adding 225 μL of cold acetonitrile with internal standard (4 μg/ml warfarin). All of the plates were sealed and mixed well at 600 rpm for 10 minutes followed by centrifugation at 4000 rpm for 20 minutes. The supernatants (120 μL) were transferred to analytical plates for analysis by LCMS. LCMS conditions were described in the materials and instrumentation section above. The metabolic stability is evaluated via the half-life from least-squares fit of the multiple time points based on first-order kinetics.

Plasma stability assay = type: in vitro ADME, human
Protocol: The plasma stability property of early drug discovery compounds can influence the in vivo efficacy of the test compounds/drugs. Human and/or mouse plasma degradation is determined using multiple time points to monitor the rate of disappearance of the parent compound during incubation.
Sample preparation for plasma stability was modified from Di et al. (2005) Int. J. Pharm. 297(1-2): 110-119. A set of incubation times of 0, 3, 24, and 48 hour were used. DMSO stock solutions of test compounds were prepared at 10 mM concentration. 1.8 μL of each test compound was each added directly to 1.8 mL of human/mouse plasma to get the final concentration of 10 μM. This compound/matrix was mixed and 70 μL was transferred to 8 time points plates (each in triplicate wells). For the Time 0 plate, 210 μL of cold acetonitrile with internal standard (4 μg/mL warfarin) was added to each well and no incubation needed. For other seven time points' plate, the plate was incubated at 37° C. for required time, followed by quenching of the reaction by adding 210 μL of cold acetonitrile with internal standard (4 μg/ml warfarin) to each well. All of the plates were sealed and mixed well at 600 rpm for 10 min and were centrifuged at 4000 rpm for 20 min. The supernatants (120 μL) were transferred to analytical plates for analysis by LCMS. Conditions for Waters ACQUITY-UPLC-MS-UV system was described separately. The plasma stability was evaluated via the half-life from least-squares fit of the multiple time points based on first-order kinetics.

Solubility determination = type: physicochemical; conditions: for solubility kinetic at 10 min: 22 °C, aqueous buffer, kinetic from dmso stock
Protocol: Test compounds were synthesized and supplied by the Department of Chemical Biology and Therapeutics at St. Jude Children's Research Hospital (Memphis, Tenn.). LC-MS chromasolv grade acetonitrile (ACN) was purchased from Fisher Scientific (Loughborough, UK). LC-MS chromasolv grade formic acid was obtained from Sigma-Aldrich (St. Louis, Mo.). Milli-Q water as an ultrapure laboratory grade water was used in aqueous mobile phase.
Chromatographic separation was performed on an Acquity UPLC BEH C18 1.7 μm, 2.1×50 mm column (Waters Corporation, Milford, Mass.) using an Acquity ultra performance liquid chromatography system. The total flow rate was 0.9 mL/min. The sample injection volume was 10 μL. The UPLC column was maintained at 60° C. and the gradient program started at 90% A (0.1% formic acid in MilliQ H2O), changed to 70% A over 0.2 min, to 95% B (0.1% formic acid in ACN) over 1.4 minutes, held for 0.35 minutes, then to 90% A over 0.05 minutes.
Mass data was acquired with an Acquity SQD Mass Spectrometer. The mass spectrometer was operated in positive-ion mode with electrospray ionization. The conditions were as follows: capillary voltage 3.5 kV, cone voltage 30 V, source temperature 150° C., desolvation temperature 350° C., desolvation gas 500 L/hr, cone gas 25 L/hr. Data were acquired using Masslynx v. 4.1 and analyzed using the Quanlynx software suite. A full scan range from m/z=100-1000 in 0.2 s was used to acquire MS data. Both UV and Single ion recording mass spectrometry were used to determine the quantification of the samples.
Stock solutions were prepared by dissolving compounds into DMSO to yield a concentration of 10 mM. Stock solutions were stored at room temperature.
Calibration standards were made by adding stock solutions to DMSO for final concentrations of compounds at concentration of 100, 25, 6.25, 1.563, 0.391 and 0.098 μM.
Solubility test samples were made by adding stock solutions to 200 μL, of DPBS for final concentrations of compounds at 100 μM in a 96-well analytical plate (300 μL, maximum volume in each well). Samples were tested in triplicates. The plate was sealed, shaken at 600 rpm for 10 minutes, and then was centrifuged at 4000 rpm for 20 min at 22° C. 100 μL, of the supernatant was transferred to a new analytical 96-well plate and 10 μL, was injected onto the LCMS system.
Two calibration curves for solubility test samples were analyzed during the quantitation process. The linear regression of test compound peak areas was weighted by 1/x^2. […] Coefficient of determination (R^2) was used to evaluate the linearity of each calibration curve.

[2] = microsomal metabolic stability half-life, mouse liver microsomes
[3] = plasma stability half-life, human plasma, 37° C.
[4] = solubility in DPBS, 100 μM test samples, LCMS, read-out: LCMS

SMILES	Mouse ([1]; CD-1, mouse, pH 7.4)	Human (Plasma stability assay; human, 10 μM)	μsol (μM) (Solubility determination)	solubility kinetic at 10 min (Solubility determination)	Mouse [1, 2]	Human (Plasma stability assay; [3])	solubility kinetic at 10 min (Solubility determination; [4])	μsol (μM) (Solubility determination; solubility)	Human (hr) (Plasma stability assay; [3])	μsol (μg/mL) (Solubility determination; solubility)	Human (hr) (Plasma stability assay; human, 10 μM)	μsol (μg/mL) (Solubility determination)
C[C@@H]1C[C@H]2C(=O)OC[C@H](NC(=O)[C@H](Cc3cccc(C(F)(F)F)c3)NC(=O)Nc3ccc(Cl)cc3F)C(=O)N3CCC[C@H]3C(=O)N3CCN(C)C[C@H]3C(=O)N[C@@H](C)C(=O)N2C1 [Compound 18, (S)-2-(3-(4-CHLORO-2-FLUOROPHENYL)UREIDO)-3-(3-(TRIFLUOROMETHYL)PHENYL)-N-((6AS,12S,15AS,17R,21S,23AS)-2,17,21-TRIMETHYL-6,11,15,20,23-PENTAOXOOCTADECAHYDRO-2H,6H,11H,15H-PYRAZINO[2,1-I]DIPYRROLO[2,1-C:2′,1′-L][1]OXA[4,7,10,13]TETRAAZACYCLOHEXADECIN-12-YL)PROPANAMIDE] ({NH(4-Cl-2-F-phenyl)-CO}-[Phe(3-CF3)]SP[Piperazine(2S-CO,4-Me)]A[Pro(4R-Me)]; ester 2-C)	1.88 ± 0.12 h	46.62 h	22.7 ± 0.8 µM	22.6 ± 2.1 µM (≈ 19.9 µg/mL)								
Cc1ccc(NC(=O)N[C@@H](Cc2cccc(C)c2)C(=O)N[C@H]2COC(=O)[C@@H]3CCCN3C(=O)[C@H](C)NC(=O)[C@@H]3CCCCN3C(=O)[C@@H]3C[C@@H](O)CN3C2=O)cc1 [Compound 49, (S)—N-((6S,8AS,14AS,16R,20S,23AS)-16-HYDROXY-6-METHYL-5,8,14,19,23-PENTAOXOOCTADECAHYDRO-1H,5H,14H,19H-PYRIDO[2,1-I]DIPYRROLO[2,1-C:2′,1′-L][1]OXA[4,7,10,13]TETRAAZACYCLOHEXADECIN-20-YL)-3-(M-TOLYL)-2-(3-(P-TOLYL)UREIDO)PROPANAMIDE]					4.37 ± .373 h	29.79 h	17 ± 6.97 µM (≈ 13.1 µg/mL)	8.5 ± .51 µM				
Cc1ccc(NC(=O)N[C@@H](Cc2cc(C)cc(C)c2)C(=O)N[C@@H]2C(=O)N3CCC[C@H]3C(=O)N3CCCC[C@H]3C(=O)N[C@@H](C)C(=O)N3C[C@H](C)C[C@H]3C(=O)O[C@H]2C)cc1 [Compound 2, (S)-3-(3,5-DIMETHYLPHENYL)-2-(3-(P-TOLYL)UREIDO)-N-((2R,6S,8AS,14AS,20S,21S,23AS)-2,6,21-TRIMETHYL-5,8,14,19,23-PENTAOXOOCTADECAHYDRO-1H,5H,14H,19H-PYRIDO[2,1-I]DIPYRROLO[2,1-C:2′,1′-L][1]OXA[4,7,10,13]TETRAAZACYCLOHEXADECIN-20-YL)PROPANAMIDE] ({NH(4-Me-phenyl)-CO}-[Phe(3,5-Me2)][aThr]P[Pip]A[Pro(4R-Me)]; ester 2-C)					2.85 h		6.7 µM (≈ 5.36 µg/mL)	10.4 µM	>>48 hr	8.3 µg/mL		
Cc1cccc(C[C@H](NC(=O)Nc2ccc(Cl)cc2F)C(=O)N[C@@H]2C(=O)N3CCC[C@H]3C(=O)N3CCCC[C@H]3C(=O)N[C@@H](C)C(=O)N3C[C@H](C)C[C@H]3C(=O)O[C@H]2C)c1 [Compound 3, (S)-2-(3-(4-CHLORO-2-FLUOROPHENYL)UREIDO)-3-(M-TOLYL)-N-((2R,6S,8AS,14AS,20S,21S,23AS)-2,6,21-TRIMETHYL-5,8,14,19,23-PENTAOXOOCTADECAHYDRO-1H,5H,14H,19H-PYRIDO[2,1-I]DIPYRROLO[2,1-C:2′,1′-L][1]OXA[4,7,10,13]TETRAAZACYCLOHEXADECIN-20-YL)PROPANAMIDE] ({NH(4-Cl-2-F-phenyl)-CO}-[Phe(3-Me)][aThr]P[Pip]A[Pro(4R-Me)]; ester 2-C)	11.65 ± 2.2 h		2.2 ± 0.1 µM	0.5 µM (≈ 0.412 µg/mL)							>>48 hr	1.8 ± 0.1 µg/mL
Cc1cccc(C[C@H](NC(=O)Nc2ccc(Cl)cc2F)C(=O)N[C@@H]2C(=O)N3CCC[C@H]3C(=O)N3CCS(=O)(=O)C[C@H]3C(=O)N[C@@H](C)C(=O)N3C[C@H](C)C[C@H]3C(=O)O[C@H]2C)c1 [Compound 40, (S)-2-(3-(4-CHLORO-2-FLUOROPHENYL)UREIDO)-3-(M-TOLYL)-N-((6AS,12S,13S,15AS,17R,21S,23AR)-13,17,21-TRIMETHYL-2,2-DIOXIDO-6,11,15,20,23-PENTAOXOOCTADECAHYDRO-6H,11H,15H-DIPYRROLO[2,1-C:2′,1′-L][1,4]THIAZINO[3,4-I][1]OXA[4,7,10,13]TETRAAZACYCLOHEXADECIN-12-YL)PROPANAMIDE] ({NH(4-Cl-2-F-phenyl)-CO}-[Phe(3-Me)][aThr]P[X6]A[Pro(4R-Me)]; ester 2-C)	6.54 ± .543 h	>50 h	0 µM	2.21 ± 0.208 µM (≈ 1.93 µg/mL)								
COc1cccc(C[C@H](NC(=O)Nc2ccc(Cl)cc2F)C(=O)N[C@H]2COC(=O)[C@@H]3C[C@@H](C)CN3C(=O)[C@H](C)NC(=O)[C@@H]3CN(C)CCN3C(=O)[C@@H]3CCCN3C2=O)c1 [Compound 19, (S)-2-(3-(4-CHLORO-2-FLUOROPHENYL)UREIDO)-3-(3-METHOXYPHENYL)-N-((6AS,12S,15AS,17R,21S,23AS)-2,17,21-TRIMETHYL-6,11,15,20,23-PENTAOXOOCTADECAHYDRO-2H,6H,11H,15H-PYRAZINO[2,1-I]DIPYRROLO[2,1-C:2′,1′-L][1]OXA[4,7,10,13]TETRAAZACYCLOHEXADECIN-12-YL)PROPANAMIDE] ({NH(4-Cl-2-F-phenyl)-CO}-[Phe(3-OMe)]SP[Piperazine(2S-CO,4-Me)]A[Pro(4R-Me)]; ester 2-C)	0.80 ± 0.05 h	62.38 h	51.5 ± 1.1 µM	55.9 ± 2.9 µM (≈ 47 µg/mL)								
